According to the NIST ThermoML archive (doi:10.1021/je400968v):
± gives the expanded uncertainty stated by the source.

Assay: mn = molality of the nth substance listed, in mol/kg
Details: 101 kPa, Liquid; for viscosity: Capillary tube (Ostwald / Ubbelohde) method; for mass density: Vibrating tube method

Cc1ccc(N)cc1N [4-methyl-1,3-benzendiamine] + CCCO
Details	mass density, 293.15 K [kg/m3]	mass density, 303.15 K [kg/m3]	mass density, 313.15 K [kg/m3]	mass density, 323.15 K [kg/m3]	mass density, 333.15 K [kg/m3]	viscosity, 293.15 K [mPa·s]	viscosity, 303.15 K [mPa·s]	viscosity, 313.15 K [mPa·s]	viscosity, 323.15 K [mPa·s]	viscosity, 333.15 K [mPa·s]
m1 = 0.05	805.47 ± 0.17	797.13 ± 0.17	788.94 ± 0.17	780.57 ± 0.17	771.96 ± 0.18	2.189 ± 0.014	1.71 ± 0.012	1.348 ± 0.009	1.074 ± 0.008	0.864 ± 0.006
m1 = 0.1003	807.05 ± 0.17	798.71 ± 0.17	790.49 ± 0.17	782.12 ± 0.17	773.5 ± 0.18	2.206 ± 0.015	1.723 ± 0.012	1.354 ± 0.009	1.079 ± 0.008	0.868 ± 0.006
m1 = 0.15	808.57 ± 0.17	800.22 ± 0.17	792.01 ± 0.17	783.62 ± 0.17	774.99 ± 0.18	2.225 ± 0.015	1.735 ± 0.012	1.365 ± 0.009	1.086 ± 0.008	0.875 ± 0.006
m1 = 0.1997	810.04 ± 0.17	801.7 ± 0.17	793.49 ± 0.17	785.09 ± 0.17	776.45 ± 0.18	2.247 ± 0.015	1.748 ± 0.012	1.372 ± 0.009	1.091 ± 0.008	0.878 ± 0.006
m1 = 0.2499	811.49 ± 0.17	803.17 ± 0.17	794.96 ± 0.17	786.55 ± 0.17	777.91 ± 0.18	2.267 ± 0.015	1.759 ± 0.012	1.382 ± 0.01	1.099 ± 0.008	0.883 ± 0.006
m1 = 0.2999	812.87 ± 0.17	804.6 ± 0.17	796.4 ± 0.17	787.99 ± 0.17	779.34 ± 0.18	2.294 ± 0.015	1.774 ± 0.012	1.389 ± 0.01	1.106 ± 0.008	0.889 ± 0.006
m1 = 0.3496	814.24 ± 0.17	805.98 ± 0.17	797.83 ± 0.17	789.4 ± 0.17	780.74 ± 0.17	2.315 ± 0.015	1.79 ± 0.012	1.401 ± 0.01	1.112 ± 0.008	0.893 ± 0.006
m1 = 0.3994	815.57 ± 0.17	807.34 ± 0.17	799.22 ± 0.17	790.77 ± 0.17	782.12 ± 0.17	2.338 ± 0.015	1.806 ± 0.012	1.412 ± 0.01	1.117 ± 0.008	0.899 ± 0.006

Cc1ccc(N)cc1N [4-methyl-1,3-benzendiamine] + CCO
Details	mass density, 293.15 K [kg/m3]	mass density, 303.15 K [kg/m3]	mass density, 313.15 K [kg/m3]	mass density, 323.15 K [kg/m3]	mass density, 333.15 K [kg/m3]	viscosity, 293.15 K [mPa·s]	viscosity, 303.15 K [mPa·s]	viscosity, 313.15 K [mPa·s]	viscosity, 323.15 K [mPa·s]	viscosity, 333.15 K [mPa·s]
m1 = 0.0503	791.4 ± 0.16	782.79 ± 0.16	774 ± 0.16	765.08 ± 0.17	755.96 ± 0.17	1.196 ± 0.008	0.982 ± 0.007	0.815 ± 0.006	0.68 ± 0.005	0.571 ± 0.004
m1 = 0.0999	793.18 ± 0.16	784.54 ± 0.16	775.74 ± 0.16	766.82 ± 0.17	757.7 ± 0.17	1.208 ± 0.008	0.995 ± 0.007	0.821 ± 0.006	0.685 ± 0.005	0.576 ± 0.004
m1 = 0.1497	794.92 ± 0.16	786.27 ± 0.16	777.46 ± 0.16	768.52 ± 0.17	759.41 ± 0.17	1.224 ± 0.008	1.004 ± 0.007	0.829 ± 0.006	0.691 ± 0.005	0.579 ± 0.004
m1 = 0.1994	796.64 ± 0.16	787.95 ± 0.16	779.14 ± 0.16	770.21 ± 0.17	761.1 ± 0.17	1.236 ± 0.008	1.015 ± 0.007	0.836 ± 0.006	0.696 ± 0.005	0.583 ± 0.004
m1 = 0.2494	798.32 ± 0.16	789.63 ± 0.16	780.81 ± 0.16	771.88 ± 0.17	762.76 ± 0.17	1.252 ± 0.008	1.027 ± 0.007	0.845 ± 0.006	0.703 ± 0.005	0.588 ± 0.004
m1 = 0.2997	799.96 ± 0.16	791.27 ± 0.16	782.46 ± 0.16	773.52 ± 0.16	764.42 ± 0.17	1.265 ± 0.008	1.037 ± 0.007	0.853 ± 0.006	0.708 ± 0.005	0.592 ± 0.004
m1 = 0.3496	801.58 ± 0.16	792.88 ± 0.16	784.07 ± 0.16	775.13 ± 0.16	766.03 ± 0.17	1.28 ± 0.008	1.046 ± 0.007	0.861 ± 0.006	0.714 ± 0.005	0.597 ± 0.004
m1 = 0.3994	803.15 ± 0.16	794.44 ± 0.16	785.66 ± 0.16	776.73 ± 0.16	767.62 ± 0.17	1.293 ± 0.008	1.059 ± 0.007	0.868 ± 0.006	0.72 ± 0.005	0.601 ± 0.004
m1 = 0.4496	804.71 ± 0.16	796.01 ± 0.16	787.24 ± 0.16	778.31 ± 0.16	769.19 ± 0.17	1.31 ± 0.008	1.068 ± 0.007	0.877 ± 0.006	0.727 ± 0.005	0.607 ± 0.004
m1 = 0.4995	806.25 ± 0.16	797.53 ± 0.16	788.77 ± 0.16	779.84 ± 0.16	770.7 ± 0.17	1.323 ± 0.009	1.079 ± 0.007	0.883 ± 0.006	0.731 ± 0.005	0.61 ± 0.004
m1 = 0.5492	807.75 ± 0.16	799.06 ± 0.16	790.28 ± 0.16	781.37 ± 0.16	772.2 ± 0.17	1.34 ± 0.009	1.09 ± 0.007	0.893 ± 0.006	0.739 ± 0.005	0.616 ± 0.004
m1 = 0.5989	809.18 ± 0.16	800.53 ± 0.16	791.76 ± 0.16	782.81 ± 0.16	773.66 ± 0.17	1.353 ± 0.009	1.101 ± 0.007	0.899 ± 0.006	0.743 ± 0.005	0.619 ± 0.004
